Data reported in ChEMBL document CHEMBL5726109, “Histone deacetylase inhibitors and compositions and methods of use thereof” (2017).
pIC50: −log10 of the molar value.

Biological target: Histone deacetylase 4 (Homo sapiens, UniProt P56524)
Experiment: Inhibition Assay: 2 μl (200×) of each diluted solution and each control (full activity: 100% DMSO alone or full inhibition 1 mM) is stamped into V-bottomed polypropylene 384-well compound plates using either the Bravo (384-well head from Agilent) or 12.5 μl 16-channel Matrix multi-channel pipette (Matrix Technologies Ltd).

Sequence of Histone deacetylase 4 (P56524 whole entry): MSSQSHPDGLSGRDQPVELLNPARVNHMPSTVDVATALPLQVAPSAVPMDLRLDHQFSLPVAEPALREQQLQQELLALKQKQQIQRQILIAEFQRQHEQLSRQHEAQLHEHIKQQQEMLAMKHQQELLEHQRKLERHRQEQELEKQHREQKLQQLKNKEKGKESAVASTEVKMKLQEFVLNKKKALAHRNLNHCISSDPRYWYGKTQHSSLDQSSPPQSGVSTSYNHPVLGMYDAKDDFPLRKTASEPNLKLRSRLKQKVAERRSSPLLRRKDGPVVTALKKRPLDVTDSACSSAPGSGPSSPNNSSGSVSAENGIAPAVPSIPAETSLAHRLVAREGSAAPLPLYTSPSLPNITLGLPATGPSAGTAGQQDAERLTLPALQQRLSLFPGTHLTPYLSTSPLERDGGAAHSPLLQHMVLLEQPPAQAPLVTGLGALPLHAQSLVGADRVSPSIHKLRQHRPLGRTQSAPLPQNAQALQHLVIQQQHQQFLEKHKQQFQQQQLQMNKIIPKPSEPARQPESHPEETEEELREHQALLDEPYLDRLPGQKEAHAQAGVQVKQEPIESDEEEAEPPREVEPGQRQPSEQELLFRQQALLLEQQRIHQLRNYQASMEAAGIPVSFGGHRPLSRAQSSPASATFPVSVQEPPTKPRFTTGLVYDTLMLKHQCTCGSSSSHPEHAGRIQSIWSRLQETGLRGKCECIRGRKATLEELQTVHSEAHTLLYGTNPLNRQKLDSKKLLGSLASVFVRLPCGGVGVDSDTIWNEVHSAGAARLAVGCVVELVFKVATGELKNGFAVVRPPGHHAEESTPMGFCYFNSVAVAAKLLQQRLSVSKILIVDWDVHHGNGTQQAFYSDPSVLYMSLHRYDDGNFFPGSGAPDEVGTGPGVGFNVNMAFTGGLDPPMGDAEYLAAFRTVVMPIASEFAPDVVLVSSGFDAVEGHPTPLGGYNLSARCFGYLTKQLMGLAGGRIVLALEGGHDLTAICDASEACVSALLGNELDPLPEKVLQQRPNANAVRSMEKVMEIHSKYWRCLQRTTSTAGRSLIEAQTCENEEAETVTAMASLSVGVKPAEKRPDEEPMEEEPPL

pIC50: 5.62
Structure (SMILES): Cc1c(F)cccc1[C@@]1(C(=O)NO)C=C(c2cnccn2)CC1
